Target: T1, human tyrosinase (Homo sapiens, UniProt P14679)
T1 sequence (P14679 19-529): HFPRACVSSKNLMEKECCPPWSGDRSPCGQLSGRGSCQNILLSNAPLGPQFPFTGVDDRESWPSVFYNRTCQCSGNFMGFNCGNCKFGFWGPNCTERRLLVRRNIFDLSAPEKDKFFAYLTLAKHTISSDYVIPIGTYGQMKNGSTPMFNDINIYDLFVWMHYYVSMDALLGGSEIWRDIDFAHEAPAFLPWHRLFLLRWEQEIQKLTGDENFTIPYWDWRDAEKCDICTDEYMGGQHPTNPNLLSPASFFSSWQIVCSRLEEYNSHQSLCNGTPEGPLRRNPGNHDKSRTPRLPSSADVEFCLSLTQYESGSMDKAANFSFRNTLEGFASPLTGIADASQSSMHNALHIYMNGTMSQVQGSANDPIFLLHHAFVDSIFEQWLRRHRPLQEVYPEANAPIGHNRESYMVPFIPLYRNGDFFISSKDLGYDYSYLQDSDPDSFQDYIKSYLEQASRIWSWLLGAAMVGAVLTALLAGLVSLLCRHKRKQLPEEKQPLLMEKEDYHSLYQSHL
Test: Enzyme test: conversion of L-DOPA to L-dopaquinone by human tyrosinase (MBTH, absorption at 490 nm)
Format: biochemical
Settings: tyrosinase activity
Description: Method Description of the Effectiveness Investigations:
In this literature-known method (Winder, A. J. and Harris, H., New assays for the tyrosine hydroxylase and dopa oxidase activities of tyrosinase. Eur. J. Biochem. (1991), 198, 317-26), the reaction product L-dopaquinone is reacted with MBTH (3-methyl-2-benzothiazoline hydrazone) to give a pink-colored substance, the increase of which is measured over time by absorption at 490 nm. […] It can be concluded from this that the substances according to the invention are extremely effective pigmentation-inhibiting substances.

| SMILES | Inhibition (% of the control) (concentration 0.4 μg/mL) | Inhibition (% of the control) (concentration 200 μg/mL) |
| --- | --- | --- |
| CC(C)C(=O)Nc1nc(-c2ccc(O)cc2O)cs1 [N-(4-(2,4-dihydroxyphenyl)thiazol-2-yl)isobutyramide] | 38.2 % of the control |  |
| C/C=C/C=C/C(=O)[O-].[K+] [Potassium sorbate] |  | 42.0 % of the control |
| O=C([O-])c1ccccc1.[Na+] [Sodium benzoate] |  | 43.6 % of the control |

Source: patent US9610234B2, “Combinations of alkylamidothiazoles and preservatives” (Beiersdorf AG, priority 2013, dated 2017)
